Test [1] has as its system Magnaporthe grisea (Pyricularia oryzae, PYRIOR). In words: microbe, parasite or virus in culture. Particulars: read-out: T9 PYRIOR in vitro Growth Inhibition. In kind it is cell-based.
In test [2] the test system is Rhizoctonia solani (RHIZSO). In words: microbe, parasite or virus in culture. In kind it is cell-based. The note with it: read-out: T10 RHIZSO in vitro Growth Inhibition.
Test [3] has as its system Stagonospora nodorum (Leptosphaeria nodorum, LEPTNO). In words: microbe, parasite or virus in culture. The note with it: Parastagonospora nodorum, read-out: T7 LEPTNO in vitro Growth Inhibition. In kind it is cell-based.
Test [4] has as its system Phytophthora infestans (PHYTIN). In words: whole plant or invertebrate. Particulars: in Solanum lycopersicum, 24 h, read-out: T3 PHYTIN in vivo 1 Day Protectant, control of fungal infection.
Test [5] concerns Puccinia recondita (PUCCRT). In words: Brown Rust of Wheat, whole plant 24 Hour Protectant (T5). The note with it: read-out: T5 PUCCRT in vivo 1 Day Protectant, control of fungal infection.
Test [6] concerns Ustilago maydis (USTIMA). In words: microbe, parasite or virus in culture. In kind it is cell-based. Particulars: Mycosarcoma maydis, read-out: T12 USTIMA in vitro Growth Inhibition.
The test system of test [7] is Erysiphe graminis (ERYSGT). In words: Powdery Mildew of Wheat, whole plant 24 Hour Protectant (T1). Particulars: Blumeria graminis, in Triticum aestivum, read-out: T1 ERYSGT in vivo 1 Day Protectant, control of fungal infection.
Experimental: Compound formulation was accomplished by dissolving technical materials in acetone, with serial dilutions then made in acetone to obtain desired concentrations. Final treatment volumes were obtained by adding 9 volumes 0.01% Triton X-100.
Powdery Mildew of Wheat (Erysiphe graminis—ERYSGT) (24 Hour Protectant): Wheat (cultivar Monon) was grown in a soilless peat-based potting mixture (“Metromix”) and mineral soil (50/50 mix) until the seedlings were 10-20 cm tall. These plants were then sprayed to run-off with the test compound at a rate of 100 ppm. After 24 hours the test plants were inoculated by dusting with conidia from powdery mildew infected wheat plants. The plants were then transferred to the greenhouse until disease developed on the untreated control plants.
Test [8] concerns Mycosphaerella graminicola (Septoria tritici, SEPTTR). Briefly: microbe, parasite or virus in culture. The format is cell-based. The note with it: Zymoseptoria tritici, read-out: T11 SEPTTR in vitro Growth Inhibition.
Test [9] has as its system Leptosphaeria nodorum (LEPTNO). Briefly: Glume Blotch of Wheat, whole plant 24 Hour Protectant (T2). The note with it: Parastagonospora nodorum, read-out: T2 LEPTNO in vivo 1 Day Protectant, control of fungal infection.
The test system of test [10] is Phytophthora infestans (PHYTIN). Briefly: microbe, parasite or virus in culture. The format is cell-based. Particulars: in Secale cereale, read-out: T8 PHYTIN in vitro Growth Inhibition.
Test [11] has as its system Septoria tritici (SEPTTR). In words: Leaf Blotch of Wheat, whole plant 24 Hour Protectant (T6). Particulars: Zymoseptoria tritici; wheat (cultivar Monon), sprayed at 100 ppm, inoculated after 24 hours; read-out: T6 SEPTTR in vivo 1 Day Protectant, control of fungal infection.
Setting [12] is: wheat (cultivar Yuma), sprayed at 100 ppm, inoculated after 24 hours.

SMILES strings stand for the structures. Where two headings read alike, the source gives them in different places. Bounds are passed on as bounds.

As usually defined, the inhibition is the change of the read-out against control, counted positive when it falls. In the case of `CCCOCOc1c(OC)ccnc1C(=O)N[C@H]1COC(=O)[C@H](Cc2ccccc2)[C@@H](OC(=O)C(C)C)[C@H](C)OC1=O` [Compound 6], the inhibition at 25 ppm is less than 80% in test [1]; less than 80% in [2]; greater than 80% in test [3]; less than 80% in test [6]; less than 80% in [8]; less than 80% in [10]. For the same compound, the pest or weed control at 100 ppm in [4] is less than 25%; in test [5] (setting [12]) it was 75 to 100%; in test [7], 25 to 74%; in test [9] (setting [12]), 75 to 100%.
As to `COc1ccnc(C(=O)N[C@H]2COC(=O)[C@H](Cc3ccccc3)[C@@H](OC(=O)C(C)C)[C@H](C)OC2=O)c1OCOC(C)(C)C` [Compound 8], the inhibition at 25 ppm in test [1] is less than 80%; in [2] it was less than 80%; in [3], greater than 80%; in [6], greater than 80%; in test [8], less than 80%; in test [10], less than 80%. Besides, the pest or weed control at 100 ppm was less than 25% in test [4]; 75 to 100% in [5] (setting [12]); 75 to 100% in test [11]; less than 25% in test [7]; 75 to 100% in test [9] (setting [12]).
On to `COCCOCOc1c(OC)ccnc1C(=O)N[C@H]1COC(=O)[C@H](Cc2ccccc2)[C@@H](OC(=O)C(C)C)[C@H](C)OC1=O` [Compound 11], for which the pest or weed control at 100 ppm in test [4] is less than 25%; in test [5] (setting [12]), 75 to 100%; in test [7] it was 25 to 74%; in test [9] (setting [12]), 75 to 100%.
Turning to `COc1ccnc(C(=O)N[C@H]2COC(=O)[C@H](Cc3ccccc3)[C@@H](OC(=O)C(C)C)[C@H](C)OC2=O)c1OC(C)OC` (some centres unmarked) [Compound 16], the inhibition at 25 ppm in test [1] is greater than 80%; in test [2] it was less than 80%; in [3], greater than 80%; in [6], less than 80%; in [8] it was greater than 80%; in test [10], less than 80%. In addition, the pest or weed control at 100 ppm in test [4] was less than 25%; in test [7], less than 25%; in [9] (setting [12]), 75 to 100%.
As to `COc1ccnc(C(=O)N[C@H]2COC(=O)[C@H](Cc3ccccc3)[C@@H](OC(=O)C(C)C)[C@H](C)OC2=O)c1OCOC(=O)C(C)C` [Compound 23], the inhibition at 25 ppm was less than 80% in test [1]; less than 80% in test [2]; greater than 80% in [3]; greater than 80% in [6]; less than 80% in [8]; less than 80% in test [10]. Moreover, the pest or weed control at 100 ppm was less than 25% in test [4], 75 to 100% in test [5] (24 h), 25 to 74% in [7] and 75 to 100% in [9] (24 h).
As to `COc1ccnc(C(=O)N[C@H]2COC(=O)[C@H](Cc3ccccc3)[C@@H](OC(=O)C(C)C)[C@H](C)OC2=O)c1OCOC(=O)OC(C)C` [Compound 47], the pest or weed control at 100 ppm in test [4] was less than 25%; in test [5] (setting [12]), 75 to 100%; in test [7] it was less than 25%; in test [9] (setting [12]), 75 to 100%.
Regarding `C=CCO[C@H]1[C@H](C)OC(=O)[C@@H](NC(=O)c2nccc(OC)c2OCOC(C)=O)COC(=O)[C@@H]1Cc1ccccc1` [Compound 52], the inhibition at 25 ppm in [1] was greater than 80%; in [2], greater than 80%; in test [3], greater than 80%; in test [6], less than 80%; in [8] it was greater than 80%; in test [10] it was less than 80%. For the same compound, the pest or weed control at 100 ppm in test [4] is less than 25%; in test [5] (setting [12]) it was 75 to 100%; in test [7], less than 25%; in test [9] (setting [12]), 75 to 100%.
Regarding `COc1ccnc(C(=O)N[C@H]2COC(=O)[C@H](Cc3ccccc3)[C@@H](OCC(C)C)[C@H](C)OC2=O)c1OCOCC(C)C` [Compound 65], the pest or weed control at 100 ppm in [4] is less than 25%; in test [5] (setting [12]) it was 75 to 100%; in test [11] it was 75 to 100%; in test [7], less than 25%; in [9] (setting [12]), 75 to 100%.
`COCCOC(C)C(=O)OCOc1c(OC)ccnc1C(=O)N[C@H]1COC(=O)[C@H](Cc2ccccc2)[C@@H](OC(=O)C(C)C)[C@H](C)OC1=O` (some centres unmarked) [Compound 66]: the inhibition at 25 ppm in test [1], in test [2], in test [3], in test [6], in test [8] and in test [10] was less than 80% throughout. For the same compound, the pest or weed control at 100 ppm in test [4] was less than 25%; in test [5] (setting [12]) it was 75 to 100%; in test [9] (setting [12]), 75 to 100%.
As for `COc1ccnc(C(=O)N[C@H]2COC(=O)[C@H](Cc3ccccc3)[C@@H](OC(=O)C(C)C)[C@H](C)OC2=O)c1OCOC(=O)C(C)OC` (some centres unmarked) [Compound 67], the inhibition at 25 ppm in test [1] was less than 80%; in [2] it was less than 80%; in test [3], less than 80%; in [6] it was greater than 80%; in test [8], less than 80%; in test [10], less than 80%. In addition, the pest or weed control at 100 ppm in test [4] is less than 25%; in test [5] (setting [12]) it was 75 to 100%; in test [9] (setting [12]), 75 to 100%.
As to `CCOC(C)C(=O)OCOc1c(OC)ccnc1C(=O)N[C@H]1COC(=O)[C@H](Cc2ccccc2)[C@@H](OC(=O)C(C)C)[C@H](C)OC1=O` (some centres unmarked) [Compound 68], the inhibition at 25 ppm in test [1] was less than 80%; in [2] it was greater than 80%; in [3], greater than 80%; in test [6], greater than 80%; in [8], greater than 80%; in test [10] it was less than 80%. The results for the pest or weed control at 100 ppm in [4], in test [5] (setting [12]) and in [9] (setting [12]) were less than 25%, 75 to 100% and 75 to 100%, respectively.
`CCCOC(C)C(=O)OCOc1c(OC)ccnc1C(=O)N[C@H]1COC(=O)[C@H](Cc2ccccc2)[C@@H](OC(=O)C(C)C)[C@H](C)OC1=O` (some centres unmarked) [Compound 69]: the inhibition at 25 ppm was greater than 80% in [1]; greater than 80% in [2]; greater than 80% in [3]; greater than 80% in test [6]; greater than 80% in [8]; less than 80% in test [10]. Besides, the values for the pest or weed control at 100 ppm in test [4], in [5] (setting [12]) and in test [9] (setting [12]) were less than 25%, 75 to 100% and 75 to 100%, respectively.
With `COc1ccnc(C(=O)N[C@H]2COC(=O)[C@H](Cc3ccccc3)[C@@H](OC(=O)C(C)C)[C@H](C)OC2=O)c1OCOC(=O)COCC(F)(F)F` [Compound 70], the inhibition at 25 ppm in [1] is less than 80%; in test [2], less than 80%; in test [3], greater than 80%; in [6], greater than 80%; in test [8] it was less than 80%; in test [10] it was less than 80%. Moreover, the pest or weed control at 100 ppm is less than 25% in test [4], 75 to 100% in [5] (setting [12]) and 75 to 100% in test [9] (setting [12]).
For the compound `COc1ccnc(C(=O)N[C@H]2COC(=O)[C@H](Cc3ccccc3)[C@@H](OC)[C@H](C)OC2=O)c1OCOC(C)=O` [Compound 71], the inhibition at 25 ppm in test [1] is greater than 80%; in test [2], less than 80%; in [3] it was greater than 80%; in test [6], greater than 80%; in test [8], greater than 80%; in test [10], less than 80%.
`COCCOCCOCC(=O)OCOc1c(OC)ccnc1C(=O)N[C@H]1COC(=O)[C@H](Cc2ccccc2)[C@@H](OC(=O)C(C)C)[C@H](C)OC1=O` [Compound 75]: the inhibition at 25 ppm was greater than 80% in test [1]; less than 80% in [2]; greater than 80% in test [3]; greater than 80% in [6]; greater than 80% in test [8]; less than 80% in test [10]. Also, the pest or weed control at 100 ppm in test [4] was less than 25%; in [7], 75 to 100%.

(Values after patent publication US6861390B2, “Derivatives of UK-2A” (priority 2001, dated 2005).)
